# Data: ChEMBL document CHEMBL2203034, “A new approach to explore the binding space of polysaccharide-based ligands: selectin antagonists” (ACS Med Chem Lett, 2012)
# pIC50: −log10 of the molar value.
# Legend:
# P-selectin = target: T1, P-selectin (Homo sapiens, UniProt P16109); experiment: Inhibition of immobilized rhPSGL-Ig binding to soluble P-selectin by surface plasmon resonance competitive binding assay
# T1 sequence (P16109 whole entry): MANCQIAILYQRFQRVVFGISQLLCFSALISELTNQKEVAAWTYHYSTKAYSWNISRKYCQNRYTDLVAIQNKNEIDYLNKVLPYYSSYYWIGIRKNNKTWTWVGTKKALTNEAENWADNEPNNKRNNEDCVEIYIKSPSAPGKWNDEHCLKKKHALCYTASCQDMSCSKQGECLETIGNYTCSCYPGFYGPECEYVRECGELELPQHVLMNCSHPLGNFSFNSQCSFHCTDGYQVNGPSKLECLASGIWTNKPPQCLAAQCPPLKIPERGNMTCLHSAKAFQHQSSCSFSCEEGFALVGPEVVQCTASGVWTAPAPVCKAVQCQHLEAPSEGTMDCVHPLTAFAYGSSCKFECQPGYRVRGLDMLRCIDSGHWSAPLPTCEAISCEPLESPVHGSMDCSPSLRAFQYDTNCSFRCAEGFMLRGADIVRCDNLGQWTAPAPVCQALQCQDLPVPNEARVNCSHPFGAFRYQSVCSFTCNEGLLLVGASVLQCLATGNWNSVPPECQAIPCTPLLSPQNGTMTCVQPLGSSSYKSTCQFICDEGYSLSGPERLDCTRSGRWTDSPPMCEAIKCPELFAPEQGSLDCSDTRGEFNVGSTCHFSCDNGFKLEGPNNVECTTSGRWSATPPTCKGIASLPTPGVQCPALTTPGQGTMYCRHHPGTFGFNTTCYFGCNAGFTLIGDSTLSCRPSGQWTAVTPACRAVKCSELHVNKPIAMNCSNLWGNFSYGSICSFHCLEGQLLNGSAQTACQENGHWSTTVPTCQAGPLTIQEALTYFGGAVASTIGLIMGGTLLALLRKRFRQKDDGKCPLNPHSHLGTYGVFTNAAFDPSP
# [1] = target: T2, P-selectin (Homo sapiens) (UniProt P16109); experiment: Ratio of compound IC50 to sialyl Lewisx IC50 for solube P-selectin by surface plasmon resonance competitive binding assay
# T2 sequence (whole entry): T1 sequence (P16109 whole entry)
pIC50 (P-selectin),Ratio IC50 [1],SMILES
< 3.00,,COC(=O)[C@H](O[C@@H]1O[C@@H](C)[C@@H](O)[C@@H](O)[C@@H]1O)[C@@H](O[C@@H]1O[C@H](CO)[C@H](OC(=O)c2cccc3ccccc23)[C@H](O[C@H](Cc2ccccc2)C(=O)O)[C@H]1O)C(=O)OC
< 3.00,,COC(=O)[C@H](O[C@@H]1O[C@@H](C)[C@@H](O)[C@@H](O)[C@@H]1O)[C@@H](O[C@@H]1O[C@H](CO)[C@H](O)[C@H](OCC(=O)O)[C@H]1O)C(=O)OC
3.06,0.75,COC(=O)[C@H](O[C@@H]1O[C@@H](C)[C@@H](O)[C@@H](O)[C@@H]1O)[C@@H](O[C@@H]1O[C@H](CO)[C@H](O)[C@H](O[C@H](Cc2ccccc2)C(=O)O)[C@H]1O)C(=O)OC
4.74,37,COC(=O)[C@H](O[C@@H]1O[C@@H](C)[C@@H](O)[C@@H](O)[C@@H]1O)[C@@H](O[C@@H]1O[C@H](CO)[C@H](OC(=O)c2ccccc2)[C@H](O[C@H](Cc2ccccc2)C(=O)O)[C@H]1O)C(=O)OC
